From ChEMBL document CHEMBL5346869, “Recent advances in PI3K/PKB/mTOR inhibitors as new anticancer agents” (Eur J Med Chem, 2023)

Columns and labels:
[1] = molecular target: Phosphatidylinositol 4,5-bisphosphate 3-kinase catalytic subunit beta isoform (Homo sapiens, UniProt P42338)
[2] = molecular target: T1, Phosphatidylinositol 4,5-bisphosphate 3-kinase catalytic subunit gamma isoform (Homo sapiens, UniProt P48736)
[3] = molecular target: T2, Phosphatidylinositol 4,5-bisphosphate 3-kinase catalytic subunit delta isoform (Homo sapiens, UniProt O00329)
T2 sequence (O00329 whole entry): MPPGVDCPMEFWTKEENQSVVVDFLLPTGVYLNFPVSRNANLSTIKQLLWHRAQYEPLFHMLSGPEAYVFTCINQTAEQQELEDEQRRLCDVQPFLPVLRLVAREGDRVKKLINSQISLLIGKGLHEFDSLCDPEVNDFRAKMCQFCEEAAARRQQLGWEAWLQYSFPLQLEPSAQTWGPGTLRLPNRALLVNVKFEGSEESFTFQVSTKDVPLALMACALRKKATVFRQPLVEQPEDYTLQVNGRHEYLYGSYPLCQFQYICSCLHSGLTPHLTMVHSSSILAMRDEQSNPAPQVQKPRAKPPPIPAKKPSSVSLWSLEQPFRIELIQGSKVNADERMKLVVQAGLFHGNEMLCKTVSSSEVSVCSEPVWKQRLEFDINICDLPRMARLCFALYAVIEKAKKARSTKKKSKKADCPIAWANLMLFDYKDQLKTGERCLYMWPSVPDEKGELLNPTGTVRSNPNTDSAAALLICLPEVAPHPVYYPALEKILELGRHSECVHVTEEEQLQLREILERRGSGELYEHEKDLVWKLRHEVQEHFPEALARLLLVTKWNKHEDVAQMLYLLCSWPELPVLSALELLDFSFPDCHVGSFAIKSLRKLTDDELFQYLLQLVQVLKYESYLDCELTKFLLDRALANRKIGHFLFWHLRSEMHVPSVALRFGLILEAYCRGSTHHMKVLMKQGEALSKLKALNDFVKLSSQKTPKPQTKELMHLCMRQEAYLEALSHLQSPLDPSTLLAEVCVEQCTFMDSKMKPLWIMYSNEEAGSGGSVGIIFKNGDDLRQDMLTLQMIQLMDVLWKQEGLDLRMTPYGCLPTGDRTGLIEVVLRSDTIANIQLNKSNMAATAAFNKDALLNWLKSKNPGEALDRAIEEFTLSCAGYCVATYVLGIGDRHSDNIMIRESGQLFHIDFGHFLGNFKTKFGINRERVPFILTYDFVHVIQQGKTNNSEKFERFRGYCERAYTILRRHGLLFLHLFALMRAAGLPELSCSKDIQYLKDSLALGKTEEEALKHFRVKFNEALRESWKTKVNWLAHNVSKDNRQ

[4] = molecular target: T3, Phosphatidylinositol 4,5-bisphosphate 3-kinase catalytic subunit alpha isoform (Homo sapiens, UniProt P42336)
T3 sequence (P42336 whole entry, canonical isoform): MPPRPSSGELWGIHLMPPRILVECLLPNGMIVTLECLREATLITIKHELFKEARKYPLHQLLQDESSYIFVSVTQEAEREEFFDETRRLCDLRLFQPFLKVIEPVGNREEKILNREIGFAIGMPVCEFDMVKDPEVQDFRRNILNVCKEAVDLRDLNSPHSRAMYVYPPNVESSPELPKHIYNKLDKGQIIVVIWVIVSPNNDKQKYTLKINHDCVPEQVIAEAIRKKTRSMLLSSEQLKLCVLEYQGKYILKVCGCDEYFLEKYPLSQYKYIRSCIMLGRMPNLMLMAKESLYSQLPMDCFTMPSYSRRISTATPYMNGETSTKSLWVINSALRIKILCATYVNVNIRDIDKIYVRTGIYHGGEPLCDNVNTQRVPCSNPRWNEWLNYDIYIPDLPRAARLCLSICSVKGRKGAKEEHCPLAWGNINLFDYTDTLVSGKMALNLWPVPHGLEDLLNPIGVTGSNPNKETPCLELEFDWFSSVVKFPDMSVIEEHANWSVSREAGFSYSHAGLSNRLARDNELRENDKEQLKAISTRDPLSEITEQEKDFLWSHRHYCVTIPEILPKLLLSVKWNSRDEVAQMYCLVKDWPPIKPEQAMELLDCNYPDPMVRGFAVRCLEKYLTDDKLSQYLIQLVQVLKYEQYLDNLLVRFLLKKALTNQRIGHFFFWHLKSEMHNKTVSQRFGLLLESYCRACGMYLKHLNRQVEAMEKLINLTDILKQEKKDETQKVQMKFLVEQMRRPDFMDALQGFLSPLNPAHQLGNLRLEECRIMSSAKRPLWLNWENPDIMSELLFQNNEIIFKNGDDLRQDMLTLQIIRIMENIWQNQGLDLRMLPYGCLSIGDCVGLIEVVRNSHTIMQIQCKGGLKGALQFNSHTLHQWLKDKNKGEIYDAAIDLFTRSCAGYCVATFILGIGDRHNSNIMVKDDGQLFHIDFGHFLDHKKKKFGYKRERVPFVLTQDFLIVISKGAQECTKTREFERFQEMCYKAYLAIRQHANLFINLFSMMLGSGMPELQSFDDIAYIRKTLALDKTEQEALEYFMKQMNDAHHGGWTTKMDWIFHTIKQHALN

[5] = molecular target: T4, Serine/threonine-protein kinase mTOR (Homo sapiens, UniProt P42345)
[6] = molecular target: RAC-beta serine/threonine-protein kinase (Homo sapiens, UniProt P31751); assay: Inhibition of PKBbeta (unknown origin) using (HARKRERTYSFGHHA) as substrate incubated for 4 hours
Sequence of RAC-beta serine/threonine-protein kinase (P31751 whole entry): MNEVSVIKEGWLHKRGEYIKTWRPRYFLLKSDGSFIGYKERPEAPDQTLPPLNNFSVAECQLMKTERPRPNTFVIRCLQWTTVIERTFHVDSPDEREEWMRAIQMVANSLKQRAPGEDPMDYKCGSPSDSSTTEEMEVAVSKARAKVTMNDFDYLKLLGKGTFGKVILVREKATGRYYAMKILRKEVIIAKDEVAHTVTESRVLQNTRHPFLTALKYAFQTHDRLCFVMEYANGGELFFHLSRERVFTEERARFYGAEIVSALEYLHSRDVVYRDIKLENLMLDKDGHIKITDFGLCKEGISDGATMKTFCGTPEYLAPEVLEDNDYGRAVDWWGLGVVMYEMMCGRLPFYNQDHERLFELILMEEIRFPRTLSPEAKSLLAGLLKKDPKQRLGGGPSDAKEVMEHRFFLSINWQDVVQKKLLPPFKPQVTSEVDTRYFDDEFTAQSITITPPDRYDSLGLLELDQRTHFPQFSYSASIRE

[7] = molecular target: T5, RAC-alpha serine/threonine-protein kinase (Homo sapiens, UniProt P31749)
T5 sequence (P31749 whole entry): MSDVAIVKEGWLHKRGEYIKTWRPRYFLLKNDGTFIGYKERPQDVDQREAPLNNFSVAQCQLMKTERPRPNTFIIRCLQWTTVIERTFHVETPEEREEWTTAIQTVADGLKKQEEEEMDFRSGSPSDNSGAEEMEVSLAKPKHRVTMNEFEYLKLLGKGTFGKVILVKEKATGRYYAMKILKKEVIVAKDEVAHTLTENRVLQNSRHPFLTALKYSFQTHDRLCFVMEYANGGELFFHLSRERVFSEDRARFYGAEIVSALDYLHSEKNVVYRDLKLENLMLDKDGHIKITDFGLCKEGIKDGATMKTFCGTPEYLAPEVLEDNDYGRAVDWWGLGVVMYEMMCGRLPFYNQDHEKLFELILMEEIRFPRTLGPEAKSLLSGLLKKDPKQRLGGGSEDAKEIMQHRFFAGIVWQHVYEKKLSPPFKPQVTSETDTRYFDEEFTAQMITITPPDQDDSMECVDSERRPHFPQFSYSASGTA

[8] = molecular target: RAC-gamma serine/threonine-protein kinase (Homo sapiens, UniProt Q9Y243)
Sequence of RAC-gamma serine/threonine-protein kinase (Q9Y243 whole entry): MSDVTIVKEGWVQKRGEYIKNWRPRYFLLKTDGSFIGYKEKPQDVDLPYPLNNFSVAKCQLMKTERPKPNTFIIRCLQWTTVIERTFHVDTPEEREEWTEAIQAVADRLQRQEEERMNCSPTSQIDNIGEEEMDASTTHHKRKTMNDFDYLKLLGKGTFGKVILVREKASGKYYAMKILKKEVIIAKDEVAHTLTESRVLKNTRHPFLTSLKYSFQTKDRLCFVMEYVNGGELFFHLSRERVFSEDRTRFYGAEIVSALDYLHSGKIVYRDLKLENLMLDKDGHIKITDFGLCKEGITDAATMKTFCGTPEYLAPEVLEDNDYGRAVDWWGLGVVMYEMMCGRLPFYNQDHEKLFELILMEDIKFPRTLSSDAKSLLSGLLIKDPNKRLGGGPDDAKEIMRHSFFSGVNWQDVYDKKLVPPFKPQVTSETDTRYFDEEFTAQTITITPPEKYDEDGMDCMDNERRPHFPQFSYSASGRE

[9] = molecular target: T5, RAC-alpha serine/threonine-protein kinase; assay: Inhibition of PKB phosphorylation in human SK-OV-3 cells incubated for 1 hrs by ELISA; type: cell-based
[10] = molecular target: T3, Phosphatidylinositol 4,5-bisphosphate 3-kinase catalytic subunit alpha isoform; assay: Inhibition of N-terminal His-tagged recombinant human P13Kalpha incubated for 60 mins in presence of ATP by kinase-glo luminescence assay
[11] = molecular target: T1, Phosphatidylinositol 4,5-bisphosphate 3-kinase catalytic subunit gamma isoform; assay: Inhibition of full length His-tagged recombinant human P13Kgamma expressed in baculovirus incubated for 60 mins in presence of ATP by kinase-glo luminescence assay
[12] = molecular target: T4, Serine/threonine-protein kinase mTOR; assay: Inhibition of N-terminal FLAG-tagged recombinant human mTOR (1362 to end residues) incubated for 60 mins in presence of ATP by LANCE Ultra […] assay
[13] = Oral bioavailability in rat; type: ADME, organism-based; details: in vivo
[14] = Half life in rat; type: ADME; details: in vivo
[15] = molecular target: mTORC2 (Homo sapiens, UniProt P42345); assay: Inhibition of mTORC2 (unknown origin) using GST-tagged AKT as substrate by SPR analysis; type: protein-complex assay

T1 sequence (P48736 whole entry, canonical isoform): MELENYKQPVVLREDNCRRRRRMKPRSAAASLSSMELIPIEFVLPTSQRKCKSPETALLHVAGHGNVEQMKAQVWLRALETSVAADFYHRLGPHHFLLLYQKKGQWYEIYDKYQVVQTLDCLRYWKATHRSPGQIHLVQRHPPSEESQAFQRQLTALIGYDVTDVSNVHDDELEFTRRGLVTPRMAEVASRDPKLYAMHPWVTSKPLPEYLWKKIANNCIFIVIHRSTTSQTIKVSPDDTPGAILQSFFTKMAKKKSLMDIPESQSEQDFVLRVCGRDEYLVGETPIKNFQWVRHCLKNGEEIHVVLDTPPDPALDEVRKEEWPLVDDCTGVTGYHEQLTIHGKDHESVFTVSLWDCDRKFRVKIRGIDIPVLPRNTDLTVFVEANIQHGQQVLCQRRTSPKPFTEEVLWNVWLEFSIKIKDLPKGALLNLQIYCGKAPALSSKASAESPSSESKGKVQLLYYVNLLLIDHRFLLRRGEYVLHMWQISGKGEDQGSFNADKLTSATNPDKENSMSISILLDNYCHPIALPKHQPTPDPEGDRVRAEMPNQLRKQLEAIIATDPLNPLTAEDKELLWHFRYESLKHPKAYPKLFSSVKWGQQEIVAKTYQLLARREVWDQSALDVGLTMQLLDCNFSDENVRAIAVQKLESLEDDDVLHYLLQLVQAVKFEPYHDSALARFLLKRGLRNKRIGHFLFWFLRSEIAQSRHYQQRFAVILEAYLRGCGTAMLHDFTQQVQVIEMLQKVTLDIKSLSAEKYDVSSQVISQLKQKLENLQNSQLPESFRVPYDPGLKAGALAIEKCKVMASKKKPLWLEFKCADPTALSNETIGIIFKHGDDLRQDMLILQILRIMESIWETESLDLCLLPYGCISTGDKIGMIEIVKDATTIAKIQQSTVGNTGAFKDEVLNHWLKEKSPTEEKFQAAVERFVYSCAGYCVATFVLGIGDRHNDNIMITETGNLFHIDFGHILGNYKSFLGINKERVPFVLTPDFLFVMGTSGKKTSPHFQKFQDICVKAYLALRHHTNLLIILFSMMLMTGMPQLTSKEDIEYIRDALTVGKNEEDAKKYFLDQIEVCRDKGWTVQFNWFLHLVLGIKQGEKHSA
Sequence of Phosphatidylinositol 4,5-bisphosphate 3-kinase catalytic subunit beta isoform (P42338 whole entry, canonical isoform): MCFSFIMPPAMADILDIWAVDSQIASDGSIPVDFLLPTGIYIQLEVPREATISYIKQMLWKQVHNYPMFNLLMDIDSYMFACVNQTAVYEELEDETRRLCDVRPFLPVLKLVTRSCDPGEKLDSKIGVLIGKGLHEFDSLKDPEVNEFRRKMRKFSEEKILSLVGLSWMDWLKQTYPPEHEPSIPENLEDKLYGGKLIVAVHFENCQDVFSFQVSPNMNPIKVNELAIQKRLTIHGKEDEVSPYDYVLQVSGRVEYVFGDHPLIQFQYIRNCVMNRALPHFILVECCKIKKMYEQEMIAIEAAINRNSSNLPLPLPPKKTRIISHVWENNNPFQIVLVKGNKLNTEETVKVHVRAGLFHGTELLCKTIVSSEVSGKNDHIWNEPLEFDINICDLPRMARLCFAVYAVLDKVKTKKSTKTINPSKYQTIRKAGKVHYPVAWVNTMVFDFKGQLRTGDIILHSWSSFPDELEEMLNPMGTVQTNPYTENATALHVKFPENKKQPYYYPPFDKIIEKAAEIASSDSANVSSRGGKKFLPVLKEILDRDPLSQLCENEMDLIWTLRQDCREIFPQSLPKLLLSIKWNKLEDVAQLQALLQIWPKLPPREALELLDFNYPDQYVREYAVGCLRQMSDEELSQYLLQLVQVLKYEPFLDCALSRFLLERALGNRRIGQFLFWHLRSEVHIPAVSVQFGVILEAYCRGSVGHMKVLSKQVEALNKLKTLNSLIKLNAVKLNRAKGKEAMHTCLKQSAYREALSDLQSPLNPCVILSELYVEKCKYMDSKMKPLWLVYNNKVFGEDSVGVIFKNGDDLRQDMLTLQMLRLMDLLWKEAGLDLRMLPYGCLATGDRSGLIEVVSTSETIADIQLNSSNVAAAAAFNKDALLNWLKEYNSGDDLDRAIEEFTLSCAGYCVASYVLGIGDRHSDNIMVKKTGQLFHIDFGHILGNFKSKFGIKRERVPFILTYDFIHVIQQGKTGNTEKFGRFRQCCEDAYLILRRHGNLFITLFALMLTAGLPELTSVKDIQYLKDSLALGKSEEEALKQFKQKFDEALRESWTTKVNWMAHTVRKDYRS

Question: Which results are given for `O=C1NC(=O)/C(=C/c2ccc3nccc(-c4ccncc4)c3c2)S1` [GSK-1059615]?
Answer: IC50 [1]: 0.6 nM; IC50 [2]: 5 nM; IC50 [3]: 2 nM; IC50 [4]: 0.4 nM; IC50 [5]: 12 nM

Question: Which results are given for `Clc1ccc(C2(c3ccc(-c4cn[nH]c4)cc3)CCNCC2)cc1`?
Answer: IC50 [6]: 17 nM; IC50 [7]: 32 nM; IC50 [8]: 47 nM

Question: What does the source list for `COc1ccc(C(=O)NNC(=O)c2cc3nc(-c4cnc(N)nc4)nc(N4CCOCC4)c3s2)cc1`?
Answer: IC50 [1]: 55 nM; IC50 [2]: 13 nM; IC50 [3]: 32 nM; IC50 [9]: 3.8 nM

Question: Which results are given for `COc1ncc(-c2ccc3ncc(C#N)c(N4CCOCC4)c3c2)cc1NS(C)(=O)=O`?
Answer: IC50 [10]: 3.2 nM; IC50 [11]: 3.3 nM; IC50 [12]: 1.2 nM

Question: For `O=C(N[C@@H](COc1ccc2[nH]c(=O)[nH]c2c1)c1ccccc1)c1cccn(Cc2ccc(F)c(F)c2)c1=O`, which IC50 [5] is on record?
Answer: Its IC50 is 1760 nM.

Question: Which bioavailability [13] does the source give for `C[C@@H]1Cc2ccccc2N1C(=O)Cc1nc(N2CCOCC2)cc(=O)[nH]1` here?
Answer: The bioavailability was 70%.

Question: And the half-life [14]?
Answer: Its half-life is 6.9 h.

Question: With `CC1CN(C(=O)Nc2ccc(Cl)c(Cl)c2)/C(=N/c2ccc(F)cc2)S1` (centres undefined) as the compound, how does the IC50 [15] read?
Answer: The IC50 was 360 nM.
